The test system of experiment [1] is MR4. The experiment is described as follows: Concentration required for inhibiting the growth of MR4 cells; 0.05-0.1. The experiment is classed as functional, Mus musculus.
The target in another experiment is Protein kinase C (PKC). Kind of experiment: Inhibition of protein kinase C. The experiment is classed as protein assay, Rattus norvegicus.
Experiment [2] concerns HT-29. Kind of experiment: Concentration required for inhibiting the growth of HT-29 cells; 0.1-1.0. The class given is functional, Homo sapiens.
The test system of experiment [3] is MR4. The experiment is described as follows: Concentration required for inhibiting the growth of MR4 cells; 0.1-1.0. The class given is functional, Mus musculus.
Experiment [4] concerns HT-29. Kind of experiment: Concentration required for inhibiting the growth of HT-29 cells; 0.05-0.1. The class given is functional, Homo sapiens.

In the experiment on MR4 [1], `CCCCCCCC(=O)OCC(COC(C)=O)OC(=O)CCCCCCC` (configuration not stated) had an I80 of 0.05 mM. Further, the I50 on Protein kinase C (PKC) is reported as 0.01 mM.

As to `CCCCCCCC(=O)OCC(COC)OC(=O)CCCCCCC` (configuration not stated), the I80 in the experiment with HT-29 [2] and in the experiment on MR4 [3] was 0.1 mM in each case. At Protein kinase C (PKC), the I50 was found to be 0.1 mM.

As for `CCCCCCCC(=O)OCC(CO)OC(=O)CCCCCCC` (configuration not stated) [MONOCTANOIN COMPONENT C], the I80 in the experiment on HT-29 [4] and in the experiment on MR4 [1] was 0.05 mM in each case.

The values above are taken from ChEMBL document CHEMBL1151539, “The synthesis and evaluation of diacylglycerol analogues as potential second-messenger antagonists” (Bioorg Med Chem Lett, 1992).
